{
  "source": "patent US20130005699A1",
  "about": "“METHODS AND PRODUCTS FOR TREATMENT OF DISEASES” (DMI ACQUISITION CORP., priority 2009, published 2013)",
  "key": {"[1]": {"tested_on": "human retinal endothelial cells", "test": "TER of retinal endothelial cell monolayers with danazol, steroid receptor antagonists and hormones (Example 10)", "conditions": "0.1 μM of each additive, background subtracted, divided by 0.33 cm^2"}, "[2]": {"tested_on": "human retinal endothelial cells", "test": "ECIS resistance (Example 12), retinal cells"}, "HUVECs": {"tested_on": "HUVECs", "test": "HUVEC tube formation on matrigel plugs", "format": "cell-based, human", "conditions": "18 hours, 5% FCS", "procedure": "To investigate the formation of capillary-like structures by HUVECs, the Angiogenesis System Endothelial Cell Tube Formation Assay was purchased from BD Biosciences (San Jose, Calif.) and used according to the manufacturer's protocol. In brief, 100,000 HUVECs were seeded onto rehydrated matrigel plugs in 96 well tissue culture plates in the presence of 5% FCS to induce tube formation. […] After 18 hours the wells were photographed using a Kodak DCS Pro SLR/N digital camera (Rochester, N.Y.) mounted on an inverted microscope. Ethanol treated wells were included to determine if the vehicle had any effects on cell differentiation."}, "[3]": {"tested_on": "human retinal endothelial cells", "test": "Actin stress fiber formation (Example 11), retinal cells", "conditions": "for F-actin staining pattern: danazol 1 μM alone"}, "Akt": {"tested_on": "Akt", "test": "Akt phosphorylation (CASE ELISA kit for AKT S473) in retinal endothelial cells", "format": "cell-based, human", "conditions": "2 hours", "procedure": "The cells were grown in a 25 cm^2 flask to near confluence in EGM-2 medium (Lonza, Walkersville, Md.) containing 2% fetal calf serum (Lonza). […] The plate was incubated at 37° C. with 5% CO2 for 24 hours. […] After this incubation, the cells were fixed immediately with 4% formaldehyde, refrigerated, and the extent of phosphorylation of Akt determined using the Akt Cellular Activation of Signaling ELISA Kit (CASE™ Kit for AKT 5473; SABiosciences, Frederick, Md.) following the manufacturer's protocols. The CASE™ Kit for AKT S473 quantifies the amount of activated (phosphorylated) Akt protein relative to total Akt protein in parallel assays using a conventional ELISA format with colorimetric detection. The Akt phosphorylation site is serine 473 and is recognized by one of the antibodies used in one of the two parallel assays to provide a measure of activated Akt protein. The other antibody used in the other parallel assay recognizes Akt to provide a measure of total Akt protein. Both primary antibodies are detected using a horseradish peroxidase-labeled secondary antibody. Addition of the manufacturer's Developing Solution for 10 minutes, followed by addition of the manufacturer's Stop Solution, produces the result which can be measured colorimetrically."}, "[4]": {"tested_on": "human renal glomerular microvascular endothelial cells", "test": "Actin stress fiber formation (Example 11), glomerular cells", "conditions": "for F-actin staining pattern: danazol 1 μM alone"}, "[5]": {"tested_on": "Primary human umbilical vein endothelial cells (HUVECs)", "test": "HUVEC cell proliferation (Celltiter 96 AQueous One Solution assay)", "format": "cell-based", "procedure": "Primary human umbilical vein endothelial cells (HUVECs) and EGM-2 growth medium were obtained from Cambrex (Walkersville, Md.). The cells were passaged in medium supplemented with 2% fetal calf serum (FCS) in tissue culture flasks at 37° C. and 5% CO2. Subculturing was performed using trypsin when 60-80% confluence was obtained as specified by the supplier.\nCryopreserved ampoules of passage 2 HUVECs were thawed and plated in 96 well tissue culture plates at 5,000 cells/cm^2. […] In short, medium was aspirated from each well and the cells were washed with 200 μl […] (HBSS) from Cambrex warmed to 37° C. 100 μl diluted celltiter solution (15 μl stock+85 μl EGM-2 containing 0.1% FCS) were added to each well and incubated for an additional 4 hours. Optical density was determined by microplate reader using a 530 nm filter after blank subtraction and data presented as OD±standard deviation.\nAll data are presented as representative experiment done in triplicate. Differences between subsets were analyzed using student t-test in Microsoft Excel. P<0.05 was considered statistically significant."}, "RhoA": {"tested_on": "RhoA", "test": "Rho activation assay (GLISA) in retinal endothelial cells", "format": "cell-based, human", "procedure": "This experiment was performed using a commercially-available Rho activation assay (GLISA) purchased from Cytoskeleton, Denver, Colo., following the manufacturer's protocol. […] Test compounds diluted in HBSS were placed in the incubator to equilibrate before addition to the cells. Then, 150 μl of each test compound was added to the appropriate culture wells, and the plates were incubated in the incubator for an additional 15 minutes. Then, thrombin was added to appropriate wells. After 1 minute, the cells were washed one time with 1.5 ml phosphate buffered saline and were then lysed with 100 μl GLISA lysis buffer supplemented with protease inhibitors. The extracts were scraped, transferred to microcentrifuge tubes and transferred to ice to preserve the active form of RhoA. All extracts were then cleared of debris by spinning at 10,000 rpms for 2 minutes at 4° C. The supernatants were transferred to new tubes and placed back on ice. Aliquots of each extract were removed for the GLISA assay and for protein determinations. All protein concentrations were within 10%, and the extracts were used at the achieved concentrations (equates to 15 μg total protein per well). The GLISA assay was performed using the reagents supplied in the kit."}, "[6]": {"conditions": "danazol 1 μM with TNFα 1 ng/ml, all times"}, "[7]": {"conditions": "Homo sapiens, HUVEC, 24 h, read-out: percent inhibition"}, "[8]": {"conditions": "Homo sapiens, HUVEC, 48 h, read-out: percent inhibition"}, "[9]": {"conditions": "Homo sapiens, HUVEC, 72 h, read-out: inhibition"}, "[10]": {"conditions": "passage 8 cells, 0.1 U/ml Thrombin + 1.0 μM compound"}, "[11]": {"conditions": "passage 12 cells, 0.1 U/ml Thrombin + 1.0 μM compound"}},
  "note": "Read-outs that look alike come from different tables or passages of the source.",
  "data": [
    {"compound": "C#C[C@]1(O)CC[C@H]2[C@@H]3CCC4=Cc5oncc5C[C@]4(C)[C@H]3CC[C@@]21C", "note": "[Danazol, 17α-pregna-2,4-dien-20-yno[2,3-d]-isoxazol-17β-ol]", "values": [
      {"measurement": "TER at 5 minutes", "setting": "[1]; None 250.30", "value": 280.03},
      {"measurement": "TER at 60 minutes", "setting": "[1]; None 251.00", "value": 313.06},
      {"measurement": "TER at 30 minutes", "setting": "[1]; None 262.31", "value": 311.56},
      {"measurement": "TER at 24 Hours", "setting": "[1]; None 287.09", "value": 348.35},
      {"measurement": "start of increase of ECIS compared to untreated cells, after treatment", "setting": "[2]; 1.0 μM danazol alone", "value": "1.5 to 2.0", "unit": "h"},
      {"measurement": "persistence of increased ECIS", "setting": "[2]; 1 μM of each compound, monitored for 90 hours", "value": 5, "unit": "h"},
      {"measurement": "effect on tube formation", "setting": "HUVECs; 1 μM", "value": "no effect on tube formation"},
      {"measurement": "effect on tube formation", "setting": "HUVECs; 10 μM", "value": "no effect on tube formation"},
      {"measurement": "effect on tube formation", "setting": "HUVECs; 50 μM", "value": "effective inhibitor of tube formation"},
      {"measurement": "F-actin staining pattern", "setting": "[3]; 15 minutes", "value": "perinuclear staining"},
      {"measurement": "F-actin staining pattern", "setting": "[3]; 3 hours", "value": "diffuse staining throughout the cells with ruffled edges on many of the cells"},
      {"measurement": "F-actin staining pattern", "setting": "[3]; 24 hours", "value": "staining similar to untreated controls"},
      {"measurement": "effect on S1P-induced cortical actin rings", "setting": "[3]; danazol 1 μM with S1P 1 μM", "value": "seemed to enhance the cortical rings at 3 hours"},
      {"measurement": "effect on TNFα-induced stress fibers", "setting": "[3]; [6]", "value": "decreased the stress fiber formation and/or the thickness of the fibers at all times"},
      {"measurement": "PERCENT INCREASE IN AKT PHOSPHORYLATION VERSUS CONTROL", "setting": "Akt; 0.5 μM danazol", "value": 73.8, "unit": "%"},
      {"measurement": "PERCENT INCREASE IN AKT PHOSPHORYLATION VERSUS CONTROL", "setting": "Akt; 1.0 μM danazol", "value": 66.7, "unit": "%"},
      {"measurement": "PERCENT INCREASE IN AKT PHOSPHORYLATION VERSUS CONTROL", "setting": "Akt; 2.0 μM danazol", "value": 101.6, "unit": "%"},
      {"measurement": "PERCENT INCREASE IN AKT PHOSPHORYLATION VERSUS CONTROL", "setting": "Akt; 5.0 μM danazol", "value": 40.5, "unit": "%"},
      {"measurement": "PERCENT INCREASE IN AKT PHOSPHORYLATION VERSUS CONTROL", "setting": "Akt; 10.0 μM danazol", "value": 115.3, "unit": "%"},
      {"measurement": "PERCENT INCREASE IN AKT PHOSPHORYLATION VERSUS CONTROL", "setting": "Akt; 20.0 μM danazol", "value": 161.3, "unit": "%"},
      {"measurement": "PERCENT INCREASE IN AKT PHOSPHORYLATION VERSUS CONTROL", "setting": "Akt; 50.0 μM danazol", "value": 98.6, "unit": "%"},
      {"measurement": "F-actin staining pattern", "setting": "[4]; 15 minutes", "value": "perinuclear staining"},
      {"measurement": "F-actin staining pattern", "setting": "[4]; 3 hours", "value": "diffuse staining throughout the cells with ruffled edges on many of the cells"},
      {"measurement": "F-actin staining pattern", "setting": "[4]; 24 hours", "value": "staining similar to untreated controls"},
      {"measurement": "effect on S1P-induced cortical actin rings", "setting": "[4]; danazol 1 μM with S1P 1 μM", "value": "seemed to enhance the cortical rings"},
      {"measurement": "effect on TNFα-induced stress fibers", "setting": "[4]; [6]", "value": "decreased the stress fiber formation and the thickness of the fibers at all times"},
      {"measurement": "OD", "setting": "[5]; 0.1 μM danazol, 72 hours, nil wells 1.113±0.054", "value": "0.798±0.037"},
      {"measurement": "OD", "setting": "[5]; 1 μM danazol, 48 hours, nil 0.629±0.095", "value": "0.378±0.037"},
      {"measurement": "OD", "setting": "[5]; 1 μM danazol, 72 hours, nil wells 1.113±0.054", "value": "0.484±0.022"},
      {"measurement": "OD", "setting": "[5]; 10 μM danazol, 24 hours, nil wells 0.414±0.06", "value": "0.288±0.037"},
      {"measurement": "OD", "setting": "[5]; 10 μM danazol, 48 hours, nil 0.629±0.095", "value": "0.241±0.012"},
      {"measurement": "OD", "setting": "[5]; 10 μM danazol, 72 hours, nil wells 1.113±0.054", "value": "0.229±0.016"},
      {"measurement": "OD", "setting": "[5]; 100 μM danazol, 24 hours, nil wells 0.414±0.06", "value": "0.162±0.017"},
      {"measurement": "OD", "setting": "[5]; 100 μM danazol, 48 hours, nil 0.629±0.095", "value": "0.19±0.033"},
      {"measurement": "OD", "setting": "[5]; 100 μM danazol, 72 hours, nil wells 1.113±0.054", "value": "0.156±0.018"},
      {"measurement": "effect on cell proliferation", "setting": "[5]; 100 μM danazol, all time points", "value": "complete arrest of cell proliferation"},
      {"measurement": "inhibition at 10 µM", "setting": "[5]; [7]", "value": 30, "unit": "%"},
      {"measurement": "inhibition at 100 µM", "setting": "[5]; [7]", "value": 65, "unit": "%"},
      {"measurement": "inhibition at 1 µM", "setting": "[5]; [8]", "value": 40, "unit": "%"},
      {"measurement": "inhibition at 10 µM", "setting": "[5]; [8]", "value": 61, "unit": "%"},
      {"measurement": "inhibition at 100 µM", "setting": "[5]; [8]", "value": 70, "unit": "%"},
      {"measurement": "inhibition at 0.1 µM", "setting": "[5]; Homo sapiens, HUVEC, 72 h", "value": 28, "unit": "%"},
      {"measurement": "inhibition at 1 µM", "setting": "[5]; [9]", "value": 57, "unit": "%"},
      {"measurement": "inhibition at 10 µM", "setting": "[5]; [9]", "value": 80, "unit": "%"},
      {"measurement": "inhibition at 100 µM", "setting": "[5]; [9]", "value": 86, "unit": "%"},
      {"measurement": "Percent Inhibition vs. Untreated Control", "setting": "RhoA; passage 8 cells, 1.0 μM", "value": 73.89, "unit": "%"},
      {"measurement": "Mean OD (active RhoA)", "setting": "RhoA; passage 8 cells, 1.0 μM, no thrombin, Untreated 0.102", "value": 0.027},
      {"measurement": "Mean OD (active RhoA)", "setting": "RhoA; [10]", "value": 0.373},
      {"measurement": "Percent Inhibition vs. Thrombin", "setting": "RhoA; [10]", "value": 41.02, "unit": "%"},
      {"measurement": "Percent Inhibition vs. Untreated Control", "setting": "RhoA; passage 12 cells, 1.0 μM", "value": 6.82, "unit": "%"},
      {"measurement": "Mean OD (active RhoA)", "setting": "RhoA; passage 12 cells, 1.0 μM, no thrombin, Untreated 0.455", "value": 0.424},
      {"measurement": "Mean OD (active RhoA)", "setting": "RhoA; [11]", "value": 0.859},
      {"measurement": "Percent Inhibition vs. Thrombin", "setting": "RhoA; [11]", "value": 27.57, "unit": "%"}
    ]}
  ]
}
